Test results reported in PubChem BioAssay (NCI).
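Following 48 hours of exposure in 96-well plates, responses at five concentrations were used to interpolate endpoints linearly. GI50 is the concentration that inhibits growth by half. TGI marks complete inhibition of growth.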

Experiments:
Test in all cases: NCI tumour cell line growth inhibition, 48 h
PC-3 prostate = tested on: PC-3 prostate
RXF 393 renal = tested on: RXF 393 renal
OVCAR-5 ovarian = tested on: OVCAR-5 ovarian
SK-MEL-28 melanoma = tested on: SK-MEL-28 melanoma
CAKI-1 renal = tested on: CAKI-1 renal
SNB-75 CNS = tested on: SNB-75 CNS
M14 melanoma = tested on: M14 melanoma
HCC-2998 colon = tested on: HCC-2998 colon
DU-145 prostate = tested on: DU-145 prostate
MALME-3M melanoma = tested on: MALME-3M melanoma

Row | Structure (SMILES) | GI50 (PC-3 prostate) [nM] | TGI (PC-3 prostate) [µM] | GI50 (RXF 393 renal) [nM] | TGI (RXF 393 renal) [µM] | GI50 (OVCAR-5 ovarian) [µM] | TGI (OVCAR-5 ovarian) [µM] | GI50 (SK-MEL-28 melanoma) [µM] | TGI (SK-MEL-28 melanoma) [µM] | GI50 (CAKI-1 renal) [nM] | TGI (CAKI-1 renal) [µM] | GI50 (SNB-75 CNS) [nM] | TGI (SNB-75 CNS) [µM] | GI50 (M14 melanoma) [nM] | TGI (M14 melanoma) [µM] | GI50 (HCC-2998 colon) [nM] | TGI (HCC-2998 colon) [µM] | GI50 (DU-145 prostate) [nM] | TGI (DU-145 prostate) [µM] | GI50 (MALME-3M melanoma) [µM] | TGI (MALME-3M melanoma) [µM]
1 | CC(=O)Oc1ccccc1C(=O)N=C1[Se]CCN1C(=O)c1ccccc1OC(C)=O | 1060 | 4.88 | 355 | 1.51 | 0.839 | 6.11 | 0.492 | 3.25 | 671 | 1.98 | 1250 | 3 | 523 | 2.2 | 2150 | 5.79 | 610 | 2.18 | 0.38 | 1.45
2 | Cc1cc(NC(=O)c2ccc(C)c(Nc3nccc(-c4cccnc4)n3)c2)cc(-n2cnc(C)c2)c1 | 4760 | 17.3 | 1560 | 4.88 | 3.54 | 10.5 | 1.71 | 6.19 | 2180 | 7.15 | 1100 | 2.81 | 2710 | 10.1 | 17100 | > 35.6 | 1960 | 9.06 | 2.39 | 10.6
3 | COc1ccc(-c2cc(-c3cccn3C)c(C#N)c(N)n2)cc1OC | 99000 | > 100 | > 100000 | > 100 | > 100 | > 100 | > 100 | > 100 | > 100000 | > 100 | 21100 | 70.9 | – | – | > 100000 | > 100 | 91600 | > 100 | > 100 | > 100
4 | Cc1sc2nc(NCCc3c[nH]c4ccc(Cl)cc34)[nH]c(=O)c2c1C | 2050 | 8.91 | 1790 | 3.41 | 2.97 | 11.7 | 4.08 | 15.7 | 1500 | 3.7 | 1650 | 5.21 | 2400 | 9.49 | 2390 | 5.71 | 3590 | 13 | 2.38 | 7.45
5 | COc1ccc(-n2cc(-c3ccc(Cl)c(Cl)c3)nc2SCc2cccc(C#N)c2)cc1 | 34100 | > 100 | 13600 | 41 | 94.1 | > 100 | 20.2 | > 100 | 18000 | 48.8 | 17000 | 53.4 | 48200 | > 100 | 79100 | > 100 | > 100000 | > 100 | 16.4 | > 100
6 | O=C(N/N=C\c1cc(Br)ccc1O)c1ccncc1 | 1870 | > 100 | 1890 | > 100 | 3.76 | > 100 | 3.52 | > 100 | 1040 | > 100 | 4830 | 51.1 | 2450 | 26 | 1810 | > 100 | 2530 | > 100 | 5.76 | 78.5
7 | Nc1nc(Br)nc2c1ncn2C1CC(O)C(CO)O1 (configuration not stated) | > 20100 | > 100 | 32800 | > 100 | 90.8 | > 100 | > 100 | > 100 | 2880 | > 29.9 | > 100000 | > 100 | 1100 | 8.56 | 4550 | > 100 | 44300 | > 100 | > 100 | > 100
8 | Fc1ccc(Nc2cc(-n3nnc4ccccc43)nc3ccccc23)cc1 | 20300 | > 100 | 781 | 27.6 | > 100 | > 100 | > 56.2 | > 100 | 41500 | > 68.9 | 14100 | 45.8 | > 81700 | > 100 | > 100000 | > 100 | > 56200 | > 100 | 23.1 | > 70.6
9 | O=C(O)c1cc(O)c2c(c1)C(C1c3cc(C(=O)O)cc(O)c3C(=O)c3c(OC4OC(CO)C(O)C(O)C4O)cccc31)c1cccc(OC3OC(CO)C(O)C(O)C3O)c1C2=O (configuration not stated) | > 100000 | > 100 | > 100000 | > 100 | > 100 | > 100 | > 100 | > 100 | > 100000 | > 100 | > 100000 | > 100 | > 100000 | > 100 | > 100000 | > 100 | > 100000 | > 100 | > 100 | > 100
10 | CN(C)c1ccc2nc3ccc(=O)cc-3sc2c1 | 72.6 | > 100 | 2920 | 36.9 | 4.68 | > 70.2 | 4.6 | 27.1 | 2240 | > 90.7 | 11700 | > 100 | 408 | 10.8 | 697 | > 100 | 1800 | 6.17 | 0.333 | 4.18
11 | COc1ccc(/C=c2/sc3n(c2=O)C(c2ccc(OC)c(OC)c2)C2=C(N=3)c3cc(F)ccc3OC2)cc1 (configuration not stated) | 17600 | > 100 | > 100000 | > 100 | 52.8 | > 100 | 51.5 | > 96.6 | 10100 | 41.7 | 16100 | 98.2 | 36900 | > 100 | – | 21.2 | 43300 | > 100 | – | –
12 | Cc1c[n+](Cc2ccc3ccccc3c2)cn1Cc1ccc2ccccc2c1 | 1270 | 2.84 | 1620 | 3.47 | 1.81 | 3.95 | 1.8 | 3.7 | – | – | 1090 | 2.51 | 1580 | 3.66 | 1340 | 2.83 | 2550 | 9.61 | 1.29 | 3.02
13 | O=c1[nH]c2cc(Cl)ccc2n1C1CCN(CCCC(c2ccc(F)cc2)c2ccc(F)cc2)CC1 | 1690 | 4.4 | 480 | 2.02 | 1.74 | 3.43 | 1.47 | 3.1 | 488 | 1.97 | 1270 | 2.73 | 1550 | 3.05 | 1870 | 3.49 | 1820 | 3.32 | 1.88 | 4.21
14 | O=C1/C(=C\c2cccn2Cc2ccccc2)c2ccccc2N1c1c(Cl)cccc1Cl | 5930 | > 100 | > 100000 | > 100 | 4.37 | > 100 | > 100 | > 100 | > 28900 | > 100 | > 22900 | > 100 | > 100000 | > 100 | 1830 | > 100 | > 100000 | > 100 | 3.22 | > 100
15 | CCOC(=O)N1CCN(C(=O)c2ccc(C(F)(F)F)nc2Nc2cc(Cl)ccc2C)CC1 | 7710 | > 100 | 14000 | 65.2 | 39.4 | > 100 | 26.1 | 96 | 21100 | 64.5 | 1410 | 24.1 | 23700 | > 100 | 11600 | 30.1 | 48200 | > 100 | 12 | 41
16 | CCN(CC)CC(C)(C)C(=O)/C=C/c1ccc(Cl)c(Cl)c1 | 1850 | 3.51 | 1590 | 3.1 | 1.65 | 3.49 | 1.57 | 3.08 | 1350 | 2.74 | 1300 | 2.93 | 1660 | 3.39 | 1610 | 3.08 | 1410 | 2.71 | 1.8 | 3.61
17 | CN(C)Cc1c[nH]c2c1C(=O)c1c(c(O)c3ccccc3c1O)C2=O | 5710 | 22.2 | 9480 | 25.5 | 14.3 | 27.3 | 27.4 | 58 | 10800 | 23.9 | 20000 | 53.5 | 17200 | 40.4 | 6610 | 21.9 | 923 | 11.5 | 9.61 | 23.3
18 | N#CC(C(=O)/C(=N/Nc1nc(=S)[nH]n1N)C(C#N)c1ccccc1)c1ccccc1 (configuration not stated) | – | > 100 | – | > 100 | – | > 100 | – | > 100 | – | > 100 | – | > 100 | – | > 100 | – | > 100 | – | > 100 | – | > 100
19 | CCN(CC)CCOc1ccc(/C(=C(\C)c2ccc(F)c(OC)c2)c2ccc(Cl)cc2)cc1 | 2110 | 4.62 | 2180 | 4.36 | 2.4 | 4.83 | 2.44 | 4.71 | 2420 | 4.61 | 2020 | 4.84 | 2810 | 5.64 | 2170 | 4.36 | 2510 | 5.28 | 2.09 | 4.7
20 | Cc1c(C2Nc3ccccc3C2C)[nH]c2ccccc12 (configuration not stated) | 10600 | 32.3 | 12400 | 28.8 | 14.8 | 30.9 | 12 | 26.2 | 2450 | 22.8 | 5060 | 29.8 | 15300 | 38.7 | 12600 | 26.6 | 14500 | 38.7 | 10.6 | 24.8
21 | Cc1ccc(N(CSc2ccc(Cl)cc2)CSc2ccc(Cl)cc2)cc1 | 787 | 13.2 | 1730 | 7.57 | 1.74 | 13 | 1.64 | 4.23 | 829 | 8.16 | 1390 | 8.7 | 1480 | 4.45 | 2570 | 11.7 | 2570 | 23 | 3.65 | 18.4
22 | Nc1nc(Cl)cc(NCCO)n1 | – | > 100 | – | > 100 | – | > 100 | – | > 100 | – | > 100 | – | > 100 | – | > 100 | – | > 100 | – | > 100 | – | > 100
23 | COC(COC(=O)N1CCN(C=O)CC1)C1=C(N2CC2)C(=O)C(C)=C(N2CC2)C1=O (configuration not stated) | – | 3.24 | – | 0.815 | – | 8.64 | – | 3.33 | – | 3.6 | – | – | – | 1.34 | – | 38.1 | – | 4.01 | – | 1.53
24 | CC(=O)Oc1ccccc1C(=O)N=C1[Se]CCCN1C(=O)c1ccccc1OC(C)=O | 2340 | 7.24 | 2480 | 6.92 | 3.25 | 8.66 | 2.36 | 5.74 | – | – | 2010 | 4.69 | 1860 | 4.68 | 3420 | 15.6 | 1820 | 3.26 | 2.31 | 4.9
25 | c1ccc2c3ccn4cc5c(cc4c-3nc2c1)CCCC5 | – | 12.1 | 5620 | 27 | 4.49 | 19.3 | 2.38 | 11.7 | 34900 | > 100 | 3120 | 12.3 | – | 6.41 | 4300 | 15 | 2310 | 10.5 | – | –
26 | Nc1nc(Nc2ccccc2)c2ncn(Cc3cc4c(cc3Br)OCO4)c2n1 | 80.1 | 46.9 | 60.2 | 8.65 | 0.282 | > 80.3 | 0.524 | 36.2 | 135 | > 55.2 | 62.3 | 25.3 | – | – | 205 | > 32.7 | 184 | 13.7 | – | –
